Results published in patent US4906661A, “Esters of aryloxypropanolamine derivatives” (E. I. Du Pont de Nemours and Company, priority 1989, dated 1990).

Assays:
[1] = molecular target: β1 receptors, guinea pig right atria (Cavia porcellus, UniProt H0W3H1); experiment: cell-based; settings: Table IV; mean, n ≥ 2, range ≤ ± 0.2 units; read-out: pA2 Atria (converted)
Description: Each tissue was suspended between a fixed glass rod and a Statham Universal Transducer connected to a Beckman recorder. Atria were allowed to beat spontaneously under a loading tension of approximately 0.5 gm. Intrinsic depressant or stimulant activity was determined for each compound by progressively increasing concentrations in the tissue baths at 60-minute intervals. Tissues were not washed between increments. The maximum concentration showing little or no cardiodepressant activity was chosen for blockade experiments. Changes in rate in response to isoproterenol, a standard β-receptor agonist, were measured in the absence and presence of test compounds. Spiral strips of guinea pig trachea were suspended under 5 gm resting tension and incubated with phentolamine, tropolone and cocaine. Active tension was generated by addition of carbachol (3.0×10^-7 M) and decreases in tension in response to isoproterenol were quantitated. Cumulative concentration-response curves were produced with isoproterenol both before and after 60-minute incubation of test compounds with atria and trachea. […] The blocking potency of test compounds was estimated by computing pA2 values (-log KB) by the method of Furchgott, the Pharmacological Differentiation of Adrenergic Receptors, Ann. […] The degree of cardioselectivity was estimated from the ratio, KB trachea/KB atria (10^(pA2 atria-pA2 trachea)). A ratio greater than one indicates cardioselectivity. Test drugs were dissolved in distilled water and added to the bath (30 ml) in a volume of 10 or 100 μl.

[2] = molecular target: β2 receptors, guinea pig trachea (Cavia porcellus, UniProt Q8K4Z4); experiment: cell-based; settings: Table IV; mean, n ≥ 2, range ≤ ± 0.2 units; read-out: pA2 Trachea (converted)
Chain of β2 receptors, guinea pig trachea (Q8K4Z4 whole entry): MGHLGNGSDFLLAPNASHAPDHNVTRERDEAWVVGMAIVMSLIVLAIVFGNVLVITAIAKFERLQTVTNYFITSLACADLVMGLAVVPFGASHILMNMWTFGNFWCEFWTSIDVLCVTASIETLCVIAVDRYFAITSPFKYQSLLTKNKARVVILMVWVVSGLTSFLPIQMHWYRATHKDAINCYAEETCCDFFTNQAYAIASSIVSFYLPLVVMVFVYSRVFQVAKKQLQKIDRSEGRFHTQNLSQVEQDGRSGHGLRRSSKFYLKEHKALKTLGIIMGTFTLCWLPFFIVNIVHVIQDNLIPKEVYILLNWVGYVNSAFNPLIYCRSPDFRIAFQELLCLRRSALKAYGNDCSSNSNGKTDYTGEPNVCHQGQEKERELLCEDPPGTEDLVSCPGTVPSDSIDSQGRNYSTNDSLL
Description: Each tissue was suspended between a fixed glass rod and a Statham Universal Transducer connected to a Beckman recorder. Atria were allowed to beat spontaneously under a loading tension of approximately 0.5 gm. Intrinsic depressant or stimulant activity was determined for each compound by progressively increasing concentrations in the tissue baths at 60-minute intervals. Tissues were not washed between increments. […] Changes in rate in response to isoproterenol, a standard β-receptor agonist, were measured in the absence and presence of test compounds. Spiral strips of guinea pig trachea were suspended under 5 gm resting tension and incubated with phentolamine, tropolone and cocaine. Active tension was generated by addition of carbachol (3.0×10^-7 M) and decreases in tension in response to isoproterenol were quantitated. Cumulative concentration-response curves were produced with isoproterenol both before and after 60-minute incubation of test compounds with atria and trachea. […] The blocking potency of test compounds was estimated by computing pA2 values (-log KB) by the method of Furchgott, the Pharmacological Differentiation of Adrenergic Receptors, Ann. […] A ratio greater than one indicates cardioselectivity. Test drugs were dissolved in distilled water and added to the bath (30 ml) in a volume of 10 or 100 μl.

[3] = Ocular toxicity noted in corneal anesthesia test; format: in vivo; settings: Table IV footnote e

Chain of β1 receptors, guinea pig right atria (H0W3H1 1-470): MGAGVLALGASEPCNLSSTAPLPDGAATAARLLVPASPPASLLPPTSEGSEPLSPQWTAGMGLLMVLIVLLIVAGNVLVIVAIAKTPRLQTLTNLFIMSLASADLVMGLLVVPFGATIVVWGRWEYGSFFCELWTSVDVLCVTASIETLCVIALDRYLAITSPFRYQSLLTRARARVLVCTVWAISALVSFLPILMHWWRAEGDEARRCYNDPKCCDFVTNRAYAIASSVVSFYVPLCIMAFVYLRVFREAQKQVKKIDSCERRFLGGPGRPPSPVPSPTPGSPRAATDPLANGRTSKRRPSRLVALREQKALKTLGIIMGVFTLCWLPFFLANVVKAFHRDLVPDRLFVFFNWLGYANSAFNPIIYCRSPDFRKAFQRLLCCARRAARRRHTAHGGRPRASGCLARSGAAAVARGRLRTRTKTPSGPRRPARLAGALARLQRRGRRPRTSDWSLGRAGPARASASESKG

Which results are given for `CCOC(=O)CCc1ccccc1OCC(O)CNCCNS(=O)(=O)c1ccc(C)cc1` (stereo not drawn) [No. 8 (Table IV)]?
Kb [1]: 794 nM; Kb [2]: 126 nM; ocular toxicity [3]: extreme ocular toxicity
